Assay results published in patent US8188139B2, “Heterocyclic-substituted phenyl methanones” (Hoffman-La Roche Inc., priority 2005, dated 2012).

The compounds below were run against T1, mGlyT-1b (Mus musculus, UniProt P28571) (assay: Glycine uptake inhibition assay (mGlyT-1b)). Details: inhibition of [3H]-glycine uptake in Flp-in-CHO cells transfected with mGlyT-1b cDNA; 20 min preincubation at 22° C.; read-out: IC50 (μM) at GlyT-1.
T1 construct: host or cells: Flp-in-CHO
T1 sequence (P28571 1-651 isoform P28571-2): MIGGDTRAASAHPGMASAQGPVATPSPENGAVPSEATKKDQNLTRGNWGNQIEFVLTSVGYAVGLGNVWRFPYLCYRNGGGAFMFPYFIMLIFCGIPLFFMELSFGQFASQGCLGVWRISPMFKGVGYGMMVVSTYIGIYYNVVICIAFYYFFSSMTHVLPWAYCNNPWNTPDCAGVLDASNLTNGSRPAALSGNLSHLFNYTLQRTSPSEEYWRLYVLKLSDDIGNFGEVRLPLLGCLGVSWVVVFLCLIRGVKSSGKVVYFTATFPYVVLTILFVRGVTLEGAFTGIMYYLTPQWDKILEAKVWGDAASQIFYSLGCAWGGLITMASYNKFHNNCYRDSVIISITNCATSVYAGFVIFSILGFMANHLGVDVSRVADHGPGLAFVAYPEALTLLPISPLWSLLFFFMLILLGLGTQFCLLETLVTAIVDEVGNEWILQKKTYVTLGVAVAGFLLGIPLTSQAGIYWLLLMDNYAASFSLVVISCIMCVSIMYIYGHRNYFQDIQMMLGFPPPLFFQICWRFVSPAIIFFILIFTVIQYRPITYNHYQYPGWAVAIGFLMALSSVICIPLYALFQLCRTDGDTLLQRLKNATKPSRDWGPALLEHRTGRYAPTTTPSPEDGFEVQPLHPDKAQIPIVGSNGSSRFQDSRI
Assay type: cell-based
Summary of the method: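 Flp-in CHO cells stably expressing mouse GlyT-1b were preincubated with inhibitor (concentration range) for 20 min at 22° C. in pH 7.4 uptake buffer; nonspecific uptake defined with 10 mM glycine. [3H]-glycine 60 nM plus 25 μM unlabelled glycine was then added; cell-associated radioactivity counted by scintillation and IC50 derived.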

Row | Compound | IC50
1 | Cc1ccsc1-c1ccc2c(c1)CN(C(=O)c1cc(S(C)(=O)=O)ccc1O[C@@H](C)C(F)(F)F)C2 [Example 332, [5-Methanesulfonyl-2-(2,2,2-trifluoro-1-methyl-ethoxy)-phenyl]-[5-(3-methyl-thiophen-2-yl)-1,3-dihydro-isoindol-2-yl]-methanone] | 0.041 µM
2 | C[C@H](Oc1ccc(S(C)(=O)=O)cc1C(=O)N1Cc2ccc(-c3ccc(F)cc3)cc2C1)C(F)(F)F [Example 333, [5-(4-Fluoro-phenyl)-1,3-dihydro-isoindol-2-yl]-[5-methanesulfonyl-2-(2,2,2-trifluoro-1-methyl-ethoxy)-phenyl]-methanone] | 0.047 µM
3 | C[C@H](Oc1ccc(S(C)(=O)=O)cc1C(=O)N1Cc2ccc(-c3cccc(F)c3)cc2C1)C(F)(F)F [Example 334, [5-(3-Fluoro-phenyl)-1,3-dihydro-isoindol-2-yl]-[5-methanesulfonyl-2-(2,2,2-trifluoro-1-methyl-ethoxy)-phenyl]-methanone] | 0.02 µM
4 | C[C@H](Oc1ccc(S(C)(=O)=O)cc1C(=O)N1Cc2ccc(-c3ccccc3F)cc2C1)C(F)(F)F [Example 335, [5-(2-Fluoro-phenyl)-1,3-dihydro-isoindol-2-yl]-[5-methanesulfonyl-2-(2,2,2-trifluoro-1-methyl-ethoxy)-phenyl]-methanone] | 0.031 µM
5 | C[C@H](Oc1ccc(S(C)(=O)=O)cc1C(=O)N1Cc2ccc(-c3cc(F)cc(F)c3)cc2C1)C(F)(F)F [Example 337] | 0.022 µM
6 | COc1cccc(-c2ccc3c(c2)CN(C(=O)c2cc(S(C)(=O)=O)ccc2O[C@@H](C)C(F)(F)F)C3)c1 [Example 340, [5-Methanesulfonyl-2-(2,2,2-trifluoro-1-methyl-ethoxy)-phenyl]-[5-(3-methoxy-phenyl)-1,3-dihydro-isoindol-2-yl]-methanone] | 0.025 µM
7 | C[C@H](Oc1ccc(S(C)(=O)=O)cc1C(=O)N1Cc2ccc(-c3cccs3)cc2C1)C(F)(F)F [Example 344] | 0.02 µM
8 | Cc1cscc1-c1ccc2c(c1)CN(C(=O)c1cc(S(C)(=O)=O)ccc1O[C@@H](C)C(F)(F)F)C2 [Example 345] | 0.034 µM
9 | C[C@H](Oc1ccc(S(C)(=O)=O)cc1C(=O)N1Cc2ccc(-n3cccn3)cc2C1)C(F)(F)F [Example 347] | 0.043 µM
10 | C[C@H](Oc1ccc(S(C)(=O)=O)cc1C(=O)N1Cc2cnc(N3CCOCC3)cc2C1)C(F)(F)F [Example 356, [5-Methanesulfonyl-2-((S)-2,2,2-trifluoro-1-methyl-ethoxy)-phenyl]-(6-morpholin-4-yl-1,3-dihydro-pyrrolo[3,4-c]pyridin-2-yl)-methanone] | 0.013 µM
11 | C[C@H](Oc1ccc(S(C)(=O)=O)cc1C(=O)N1Cc2ccc(OCC(F)(F)F)cc2C1)C(F)(F)F [Example 357, [5-Methanesulfonyl-2-((S)-2,2,2-trifluoro-1-methyl-ethoxy)-phenyl]-[5-(2,2,2-trifluoro-ethoxy)-1,3-dihydro-isoindol-2-yl]-methanone] | 0.03 µM
12 | CS(=O)(=O)c1ccc(OCC(F)(F)C(F)(F)F)c(C(=O)N2Cc3cc(Cl)c(N4C5CCC4COC5)cc3C2)c1 [Example 363, [5-Chloro-6-(3-oxa-8-aza-bicyclo[3.2.1]oct-8-yl)-1,3-dihydro-isoindol-2-yl]-[5-methanesulfonyl-2-(2,2,3,3,3-pentafluoro-propoxy)-phenyl]-methanone] | 0.004 µM
13 | C[C@H](Oc1ccc(S(C)(=O)=O)cc1C(=O)N1Cc2cc(Cl)c(N3C[C@@H]4C[C@H]3CO4)cc2C1)C(F)(F)F [Example 365, ((1S,4S)-5-Chloro-6-2-oxa-5-aza-bicyclo[2.2.1]hept-5-yl-1,3-dihydro-isoindol-2-yl)-[5-methanesulfonyl-2-((S)-2,2,2-trifluoro-1-methyl-ethoxy)-phenyl]-methanone] | 0.033 µM
14 | C[C@H](Oc1ccc(S(C)(=O)=O)cc1C(=O)N1Cc2cc(F)c(C3CCOCC3)cc2C1)C(F)(F)F [Example 366, [5-Fluoro-6-(tetrahydro-pyran-4-yl)-1,3-dihydro-isoindol-2-yl]-[5-methanesulfonyl-2-((S)-2,2,2-trifluoro-1-methyl-ethoxy)-phenyl]-methanone] | 0.002 µM
15 | C[C@H](Oc1ccc(S(C)(=O)=O)cc1C(=O)N1Cc2ccc(OC3CCOCC3)cc2C1)C(F)(F)F [Example 367, [5-Methanesulfonyl-2-((S)-2,2,2-trifluoro-1-methyl-ethoxy)-phenyl]-[5-(tetrahydro-pyran-4-yloxy)-1,3-dihydro-isoindol-2-yl]-methanone] | 0.0015 µM
16 | C[C@H](Oc1ccc(S(C)(=O)=O)cc1C(=O)N1Cc2ccc(C3(F)COC3)cc2C1)C(F)(F)F [Example 368, [5-(3-Fluoro-oxetan-3-yl)-1,3-dihydro-isoindol-2-yl]-[5-methanesulfonyl-2-((S)-2,2,2-trifluoro-1-methyl-ethoxy)-phenyl]-methanone] | 0.005 µM
17 | C[C@H](Oc1ccc(S(C)(=O)=O)cc1C(=O)N1Cc2ccc(OCCC(F)(F)F)cc2C1)C(F)(F)F [Example 370, [5-Methanesulfonyl-2-((S)-2,2,2-trifluoro-1-methyl-ethoxy)-phenyl]-[5-(3,3,3-trifluoro-propoxy)-1,3-dihydro-isoindol-2-yl]-methanone] | 0.047 µM
18 | C[C@H](Oc1ccc(S(C)(=O)=O)cc1C(=O)N1Cc2cc(F)c(N3CCOCC3)cc2C1)C(F)(F)F [Example 371, (5-Fluoro-6-morpholin-4-yl-1,3-dihydro-isoindol-2-yl)-[5-methanesulfonyl-2-((S)-2,2,2-trifluoro-1-methyl-ethoxy)-phenyl]-methanone] | 0.006 µM
19 | CS(=O)(=O)c1ccc(OCC(F)(F)C(F)(F)F)c(C(=O)N2Cc3cc(F)c(N4CCOCC4)cc3C2)c1 [Example 372, (5-Fluoro-6-morpholin-4-yl-1,3-dihydro-isoindol-2-yl)-[5-methanesulfonyl-2-(2,2,2,3,3-pentafluoropropoxy)-phenyl]-methanone] | 0.004 µM
20 | CC(C)Oc1ccc(S(C)(=O)=O)cc1C(=O)N1Cc2ccc(OC3CCOCC3)cc2C1 [Example 373, (2-Isopropoxy-5-methanesulfonyl-phenyl)-[5-(tetrahydro-pyran-4-yloxy)-1,3-dihydro-isoindol-2-yl]-methanone] | 0.015 µM
21 | CS(=O)(=O)c1ccc(OCC(F)(F)C(F)(F)F)c(C(=O)N2Cc3ccc(OC4CCOCC4)cc3C2)c1 [Example 374, [5-Methanesulfonyl-2-(2,2,3,3,3-pentafluoro-propoxy)-phenyl]-[5-(tetrahydro-pyran-4-yloxy)-1,3-dihydro-isoindol-2-yl]-methanone] | 0.003 µM
22 | C[C@H](Oc1ccc(S(C)(=O)=O)cc1C(=O)N1Cc2cc(Cl)c(OC3CCOCC3)cc2C1)C(F)(F)F [Example 375, [5-Chloro-6-(tetrahydro-pyran-4-yloxy)-1,3-dihydro-isoindol-2-yl]-[5-methanesulfonyl-2-((S)-2,2,2-trifluoro-1-methyl-ethoxy)-phenyl]-methanone] | 0.015 µM
23 | CC(C)Oc1ccc(S(C)(=O)=O)cc1C(=O)N1Cc2cc(Cl)c(OC3CCOCC3)cc2C1 [Example 376, [5-Chloro-6-(tetrahydro-pyran-4-yloxy)-1,3-dihydro-isoindol-2-yl]-(2-isopropoxy-5-methanesulfonyl-phenyl)-methanone] | 0.016 µM
24 | C[C@H](Oc1ccc(S(C)(=O)=O)cc1C(=O)N1Cc2cc(F)c(OC3CCOCC3)cc2C1)C(F)(F)F [Example 377, [5-Fluoro-6-(tetrahydro-pyran-4-yloxy)-1,3-dihydro-isoindol-2-yl]-[5-methanesulfonyl-2-((S)-2,2,2-trifluoro-1-methyl-ethoxy)-phenyl]-methanone] | 0.007 µM
25 | CC(C)Oc1ccc(S(C)(=O)=O)cc1C(=O)N1Cc2cc(F)c(OC3CCOCC3)cc2C1 [Example 378, [5-Fluoro-6-(tetrahydro-pyran-4-yloxy)-1,3-dihydro-isoindol-2-yl]-(2-isopropoxy-5-methanesulfonyl-phenyl)-methanone] | 0.035 µM
26 | CS(=O)(=O)c1ccc(OCC(F)(F)C(F)(F)F)c(C(=O)N2Cc3cc(F)c(OC4CCOCC4)cc3C2)c1 [Example 379, [5-Fluoro-6-(tetrahydro-pyran-4-yloxy)-1,3-dihydro-isoindol-2-yl]-[5-methanesulfonyl-2-(2,2,3,3,3-pentafluoro-propoxy)-phenyl]-methanone] | 0.007 µM
27 | CS(=O)(=O)c1ccc(OCC(F)(F)C(F)(F)F)c(C(=O)N2Cc3cc(Cl)c(OC4CCOCC4)cc3C2)c1 [Example 380, [5-Chloro-6-(tetrahydro-pyran-4-yloxy)-1,3-dihydro-isoindol-2-yl]-[5-methanesulfonyl-2-(2,2,3,3,3-pentafluoro-propoxy)-phenyl]-methanone] | 0.005 µM
28 | C[C@H](Oc1ccc(S(C)(=O)=O)cc1C(=O)N1Cc2ccc(-c3ccc(F)cc3)nc2C1)C(F)(F)F [Example 382, [2-(4-Fluoro-phenyl)-5,7-dihydro-pyrrolo[3,4-b]pyridin-6-yl]-[5-methanesulfonyl-2-((S)-2,2,2-trifluoro-1-methyl-ethoxy)-phenyl]-methanone] | 0.024 µM
